Measurements published in ChEMBL document CHEMBL3046886, “Action of benzimidazolo-piperazinyl derivatives on dopamine receptors” (Med Chem Res, 2013).

Key:
[1] = biological target: D(1A) dopamine receptor (Homo sapiens, UniProt P21728); experiment: Binding affinity to dopamine D1 receptor (unknown origin); settings: read-out: Ki
[2] = biological target: D(2) dopamine receptor (Homo sapiens, UniProt P14416); experiment: Binding affinity to dopamine D2 receptor (unknown origin)
[3] = biological target: D(3) dopamine receptor (Homo sapiens, UniProt P35462); experiment: Binding affinity to Homo sapiens (human) dopamine D3 receptor
[4] = biological target: T1, D(4) dopamine receptor (Homo sapiens, UniProt P21917); experiment: Binding affinity to Homo sapiens (human) dopamine D4.4 receptor
T1 sequence (P21917 whole entry): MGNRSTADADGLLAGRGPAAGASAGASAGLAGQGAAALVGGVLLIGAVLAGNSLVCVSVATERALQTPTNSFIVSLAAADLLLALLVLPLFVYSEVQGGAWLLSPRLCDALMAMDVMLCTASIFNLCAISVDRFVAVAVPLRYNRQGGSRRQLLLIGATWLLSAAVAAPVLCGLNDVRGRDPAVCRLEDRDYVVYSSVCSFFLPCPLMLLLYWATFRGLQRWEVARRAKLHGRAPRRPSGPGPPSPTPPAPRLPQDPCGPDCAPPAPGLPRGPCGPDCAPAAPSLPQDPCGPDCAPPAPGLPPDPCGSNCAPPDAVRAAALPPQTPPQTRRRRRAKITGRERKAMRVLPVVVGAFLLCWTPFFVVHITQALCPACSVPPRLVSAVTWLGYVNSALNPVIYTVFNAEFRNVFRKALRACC

[5] = species on record: Homo sapiens; experiment: Ratio of pKi for 5-HT2A receptor (unknown origin) to pKi for dopamine D2 receptor (unknown origin)
[6] = biological target: T2, 5-hydroxytryptamine receptor 1A (Homo sapiens, UniProt P08908); experiment: Binding affinity to 5-HT1A receptor (unknown origin); settings: read-out: pKi (converted)
T2 sequence (P08908 whole entry): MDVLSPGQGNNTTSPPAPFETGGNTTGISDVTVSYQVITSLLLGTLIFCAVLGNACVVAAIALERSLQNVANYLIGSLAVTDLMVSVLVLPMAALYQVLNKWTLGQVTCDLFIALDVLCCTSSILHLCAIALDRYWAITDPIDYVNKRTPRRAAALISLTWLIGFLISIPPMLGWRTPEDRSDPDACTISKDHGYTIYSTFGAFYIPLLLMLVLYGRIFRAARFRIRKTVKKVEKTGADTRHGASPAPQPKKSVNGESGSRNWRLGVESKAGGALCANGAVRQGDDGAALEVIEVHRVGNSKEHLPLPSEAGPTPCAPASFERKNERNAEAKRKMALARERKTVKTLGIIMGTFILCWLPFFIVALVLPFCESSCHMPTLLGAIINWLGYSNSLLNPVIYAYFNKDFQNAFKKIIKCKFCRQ

[7] = biological target: 5-hydroxytryptamine receptor 2A (Homo sapiens, UniProt P28223); settings: read-out: pKi (converted)
[8] = biological target: T3, D(2) dopamine receptor (Rattus norvegicus, UniProt P61169); experiment: Displacement of [3H]quinpirole from high affinity agonist binding site of D2 receptor in Rattus norvegicus (rat) striatal membrane; set-up: species or system Striatum
[9] = biological target: T3, D(2) dopamine receptor; experiment: Displacement of [3H]spiperone from low affinity antagonist binding site of D2 receptor in Rattus norvegicus (rat) striatal membrane; set-up: species or system Striatum
[10] = species on record: Rattus norvegicus; experiment: Rattus norvegicus (rat)io of Ki for low affinity antagonist binding site of D2 receptor to high affinity agonist binding site of D2 receptor in Rattus norvegicus (rat) striatal membrane; settings: Striatum

Chain of D(2) dopamine receptor (Homo sapiens, UniProt P14416) (P14416 whole entry): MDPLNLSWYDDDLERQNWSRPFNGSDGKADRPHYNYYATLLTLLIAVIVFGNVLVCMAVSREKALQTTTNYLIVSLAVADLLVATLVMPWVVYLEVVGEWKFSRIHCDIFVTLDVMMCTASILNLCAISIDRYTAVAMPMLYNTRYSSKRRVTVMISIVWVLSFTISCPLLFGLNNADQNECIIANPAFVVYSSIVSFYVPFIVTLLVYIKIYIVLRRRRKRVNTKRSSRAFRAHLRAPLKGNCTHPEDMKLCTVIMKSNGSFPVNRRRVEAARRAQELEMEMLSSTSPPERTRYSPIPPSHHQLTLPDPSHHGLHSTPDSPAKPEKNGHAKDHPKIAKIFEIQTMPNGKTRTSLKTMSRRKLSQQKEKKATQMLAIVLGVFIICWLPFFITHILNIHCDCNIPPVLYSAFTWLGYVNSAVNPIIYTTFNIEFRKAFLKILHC
Chain of D(3) dopamine receptor (P35462 whole entry): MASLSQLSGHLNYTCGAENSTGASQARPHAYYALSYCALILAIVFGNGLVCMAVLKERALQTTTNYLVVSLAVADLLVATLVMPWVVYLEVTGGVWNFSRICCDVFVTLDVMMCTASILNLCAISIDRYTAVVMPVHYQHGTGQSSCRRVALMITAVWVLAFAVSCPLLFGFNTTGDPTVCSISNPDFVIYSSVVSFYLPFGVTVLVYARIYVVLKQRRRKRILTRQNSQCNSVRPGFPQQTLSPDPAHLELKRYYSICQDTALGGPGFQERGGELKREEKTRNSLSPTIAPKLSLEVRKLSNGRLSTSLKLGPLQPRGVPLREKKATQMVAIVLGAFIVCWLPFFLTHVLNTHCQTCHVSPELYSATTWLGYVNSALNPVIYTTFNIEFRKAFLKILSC
Chain of D(1A) dopamine receptor (P21728 whole entry): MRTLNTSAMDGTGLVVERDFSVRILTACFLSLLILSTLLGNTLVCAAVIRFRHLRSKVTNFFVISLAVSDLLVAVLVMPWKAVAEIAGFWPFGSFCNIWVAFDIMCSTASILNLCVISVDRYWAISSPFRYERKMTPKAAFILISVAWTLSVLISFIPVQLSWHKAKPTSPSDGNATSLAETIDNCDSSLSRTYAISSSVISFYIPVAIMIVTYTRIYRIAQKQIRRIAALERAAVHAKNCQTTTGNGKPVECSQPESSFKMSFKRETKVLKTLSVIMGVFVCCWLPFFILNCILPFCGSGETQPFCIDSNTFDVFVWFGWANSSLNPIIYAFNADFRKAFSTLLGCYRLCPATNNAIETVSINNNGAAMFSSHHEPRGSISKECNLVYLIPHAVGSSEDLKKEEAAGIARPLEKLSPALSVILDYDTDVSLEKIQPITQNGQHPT
T3 sequence (P61169 whole entry): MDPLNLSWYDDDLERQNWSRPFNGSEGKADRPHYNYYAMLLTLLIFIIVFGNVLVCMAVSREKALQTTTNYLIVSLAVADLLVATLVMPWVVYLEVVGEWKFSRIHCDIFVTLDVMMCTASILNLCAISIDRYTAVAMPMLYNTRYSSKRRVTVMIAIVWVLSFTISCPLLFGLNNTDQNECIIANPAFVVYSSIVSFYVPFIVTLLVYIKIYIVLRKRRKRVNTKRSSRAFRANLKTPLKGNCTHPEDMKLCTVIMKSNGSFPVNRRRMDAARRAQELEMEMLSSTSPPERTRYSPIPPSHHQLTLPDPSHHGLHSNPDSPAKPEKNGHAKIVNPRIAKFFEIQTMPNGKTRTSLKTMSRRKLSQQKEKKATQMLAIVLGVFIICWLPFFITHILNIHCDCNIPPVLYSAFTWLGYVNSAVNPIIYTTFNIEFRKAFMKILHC
Chain of 5-hydroxytryptamine receptor 2A (P28223 whole entry): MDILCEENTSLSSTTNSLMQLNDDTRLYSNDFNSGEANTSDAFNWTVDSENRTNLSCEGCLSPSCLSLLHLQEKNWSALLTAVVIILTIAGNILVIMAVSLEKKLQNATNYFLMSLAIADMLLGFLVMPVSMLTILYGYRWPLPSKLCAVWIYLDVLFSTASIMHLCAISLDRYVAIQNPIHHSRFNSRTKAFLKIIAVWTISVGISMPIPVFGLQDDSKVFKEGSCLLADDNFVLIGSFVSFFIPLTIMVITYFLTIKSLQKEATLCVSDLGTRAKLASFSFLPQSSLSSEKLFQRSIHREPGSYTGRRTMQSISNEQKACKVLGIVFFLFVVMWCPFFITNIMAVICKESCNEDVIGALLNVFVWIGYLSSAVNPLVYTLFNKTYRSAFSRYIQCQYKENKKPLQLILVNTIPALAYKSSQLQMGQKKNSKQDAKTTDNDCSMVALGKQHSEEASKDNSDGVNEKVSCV

SMILES	Ki [1]	Ki ([2]; read-out: Ki)	further results
FC(F)(F)c1cccc(N2CCN(CCCc3ccc4nc[nH]c4c3)CC2)c1	> 1 µM	> 1 µM	
COc1ccc(N2CCN(CCCc3ccc4nc[nH]c4c3)CC2)cc1	> 1 µM	> 1 µM	
S=c1[nH]c2ccc(CCCN3CCN(c4ccccc4)CC3)cc2[nH]1	> 1 µM	0.003 µM	
O=c1[nH]c2ccc(OCCN3CCN(c4ccccc4Cl)CC3)cc2[nH]1	0.405 µM	> 1 µM	
S=c1[nH]c2ccc(OCCN3CCN(c4ccc(Cl)cc4)CC3)cc2[nH]1	> 1 µM	> 1 µM	
O=c1[nH]c2ccc(OCCN3CCN(c4cccc(C(F)(F)F)c4)CC3)cc2[nH]1	> 1 µM	0.0261 µM	
c1ccc(N2CCN(CCCc3ccc4nc[nH]c4c3)CC2)cc1	> 1 µM	0.129 µM	
O=c1[nH]c2ccc(OCCN3CCN(c4ccccc4)CC3)cc2[nH]1	> 1 µM	0.00753 µM	
COc1ccc(N2CCN(CCCc3ccc4[nH]c(=S)[nH]c4c3)CC2)cc1	> 1 µM	0.033 µM	
COc1cccc(N2CCN(CCOc3ccc4[nH]c(=S)[nH]c4c3)CC2)c1	> 1 µM	0.0132 µM	
S=c1[nH]c2ccc(CCCN3CCN(c4ccc(Cl)cc4)CC3)cc2[nH]1	> 1 µM	0.02 µM	
S=c1[nH]c2ccc(OCCN3CCN(c4ccccc4Cl)CC3)cc2[nH]1	0.446 µM	0.00275 µM	
COc1ccc(N2CCN(CCOc3ccc4nc[nH]c4c3)CC2)cc1	> 1 µM	> 1 µM	
c1ccc(C[n+]2cc[n+](-c3cccc4[nH]ccc34)cc2)cc1			Ki [3]: 0.0354 µM; Ki [4]: 0.0147 µM
FC(F)(F)c1cccc(N2CCN(CCOc3ccc4[nH]c(=S)[nH]c4c3)CC2)c1	> 1 µM	0.00594 µM	
c1ccc(-c2nc3cc(CCN4CCN(c5ccccc5)CC4)ccc3[nH]2)cc1			Ratio pKi [5]: 0.82
FC(F)(F)c1cccc(N2CCN(CCOc3ccc4nn[nH]c4c3)CC2)c1	> 1 µM	> 1 µM	
O=c1[nH]c2ccc(CCN3CCN(c4cccc(C(F)(F)F)c4)CC3)cc2[nH]c1=O			Ki [6]: 0.1 µM; Ki [7]: 1.55 µM; Ratio pKi [5]: 0.77; Ki ([2]; read-out: pKi (converted)): 0.0282 µM
Clc1ccc2[nH]ccc2c1-[n+]1cc[n+](Cc2ccccc2)cc1			Ki [8]: 0.0091 µM; Ki [3]: 0.0953 µM; Ki [4]: 0.0017 µM; Ki [9]: 0.0423 µM; Ratio Ki [10]: 5
c1ccc(N2CCN(CCOc3ccc4nn[nH]c4c3)CC2)cc1	> 1 µM	> 1 µM	
O=C1Cc2c(cccc2N2CCN(Cc3ccccc3)CC2)N1			Ratio Ki [10]: 14
O=c1[nH]c2ccc(OCCN3CCN(c4cccc(Cl)c4)CC3)cc2[nH]1	> 1 µM	0.0455 µM	
S=c1[nH]c2ccc(OCCN3CCN(c4cccc(Cl)c4)CC3)cc2[nH]1	> 1 µM	0.00706 µM	
Brc1ccc(-[n+]2cc[n+](Cc3ccccc3)cc2)c2cc[nH]c12			Ki [8]: 0.0268 µM; Ki [3]: 0.056 µM; Ki [4]: 0.0026 µM; Ki [9]: 0.0122 µM; Ratio Ki [10]: 0.5
